Broadly, the IC50 is the concentration that inhibits the measured activity by half. Low readings indicate greater potency in that assay, high ones weaker potency in that assay.

The source of these data is publication PMC11436104 (Toxins, 2024).

“And” between values parts separate entries of the source, which are not always exact repeats. Identical values can stand only once. Like-named read-outs stand apart in the source and are kept apart here. *1 amine or outer side, *2 acyl side, *3 side chain or, on linkers, in order; H or OH if unused. Where a SMILES comes first, the peptide text is derived from it. Bridges are numbered along the chain shown (N, C = ends). [ ]: non-standard residue; d: D form. Adda = CO[C@@H](Cc1ccccc1)[C@@H](C)/C=C(C)/C=C/[C@H](N[*:1])[C@H](C)C(=O)[*:2]; dAsp(3S-Me) = C[C@H](C(=O)[*:3])[C@@H](N[*:1])C(=O)[*:2]; d(γGlu) = O=C(O)[C@@H](CCC(=O)[*:2])N[*:1]; hTyr = N[C@@H](CCc1ccc(O)cc1)C(=O)O; NMeA = CN[C@@H](C)C(=O)O; NMeDha = C=C(NC)C(=O)O; CO = O=C([*:1])[*:2]

For series [1], the target named is T1, Ser/Thr protein phosphatase type-2A (PP2A) (Bos taurus, UniProt P67774).
T1 construct: PP2A; from bovine kidney; purchased Sigma P1868; host or cells: bovine kidney (tissue-purified)
The series can be described thus: Colorimetric protein phosphatase inhibition assay, p-nitrophenyl phosphate substrate. The series is classed as biochemical, bovine. Here is the method:
The inhibition of Ser/Thr protein phosphatases by the CCPs was measured using the colorimetric inhibition assay described by An and Carmichael and Gkelis et al., with some modifications. […] Enzymes, PP1 and PP2A, were diluted in reaction buffer #1 (50 mM Tris-HCl, 1.0 g/L bovine serum albumin, 1.0 mM MnCl2, 2.0 mM dithiothreitol, pH 7.4), and p-nitrophenyl phosphate was prepared in substrate buffer (0.1 M glycine, pH 10.4, 1 mM MgCl2, 1 mM ZnCl2). The assay was performed by the addition of each CCP (as a potential inhibitor; final concentrations, 0.1, 1, 10, and 100 µM) to the enzyme solution (i.e., PP1 and PP2A; final concentrations, 1 U/well and 0.01 U/well, respectively, where 1 U hydrolyzes 1 nmole of substrate per minute at pH 7.4 at 30 °C). After a few seconds of gentle shaking, the microplate was kept at room temperature for 5 min, followed by the addition of reaction buffer #2 (50 mM Tris-HCl, 0.5 g/L bovine serum albumin, 0.2 mM MnCl2, 20 mM MgCl2, and pH 8.1) for PP1, or reaction buffer #1 for PP2A. The reactions were started by the addition of p-nitrophenyl phosphate (final concentrations, 15 mM for PP1 and 10 mM for PP2A) and were carried out for 120 min at 37 °C. The hydrolysis of p-nitrophenyl phosphate to […] was recorded at 405 nm using a microplate reader (Tecan, Austria). The inhibition percentages (X) were calculated from the absorbances of the samples after incubation for 30 min, as according to Equation (1):X (%) = (APP − AS)/APP × 100,(1) where APP is the absorbance of the control sample (i.e., enzyme only), and AS is the absorbance of the test sample (i.e., enzyme with potential inhibitor). […] All measurements were repeated a minimum of three independent times, with five technical replicates per experiment. IC50 values are expressed as means ± SD.

Another series has as its system TUBA1A. The series can be described thus: Gene expression by quantitative real-time PCR in NHA. Format: cell-based, human. Here is the method:
(§1) Cells were seeded onto 6-well plates, left to attach for 16 h, and treated with each non-hCCP separately (0.1–10 µM) and the hepatotoxic MC-LR (0.01–1 µM) for 24 h at 37 °C in the CO2 incubator. The total RNA from the cells (0.5–1.0 × 10^6 cells) was isolated using the TRIzol reagent (Invitrogen), and the cDNA was synthesized using 1 μg total RNA with cDNA high-capacity archive kits (Applied Biosystems, Foster City, CA, USA), according to the manufacturer’s protocol.
(§2) The expression levels of TUBA1A, ACTB, NES, and GFAP were quantified using quantitative real-time PCR (ABI 7900 HT Sequence Detection System; Applied Biosystems). TaqMan Universal PCR Master Mix and the following TaqMan Gene Expression Assays were used: TUBA1A: tubulin, alpha 1a, Hs00362387_m1; ACTB: actin, beta, Hs99999903_m1; NES, nestin, Hs00707120_s1; and GFAP, glial fibrillary acidic protein, and Hs00157674_m1 (all from Applied Biosystems). Amplification of a glyceraldehyde 3-phosphate dehydrogenase probe GAPDH (Human Endogenous Controls, Cat. # 4310884E; Applied Biosystems) was performed as an internal control. The conditions for the quantitative real-time PCR were as follows: 50 °C for 2 min, 95 °C for 10 min, 40 cycles of 95 °C for 15 s, and 60 °C for 1 min.
(§3) The data obtained from the TaqMan Gene Expression Assays were analyzed using the ΔΔCt algorithm. Two replicates per concentration and three independent experiments were performed. The statistical significance between the controls and the treated groups was determined using two-tailed Student’s t-tests, where p < 0.05 was statistically significant. In addition, the relative expression was normalized to the housekeeping gene GAPDH (relative quantification), with at least three sample concentrations used for each gene in both untreated cell lines.
On the technique in general: Real-time PCR tracks product formation cycle by cycle.

The test system of a further series is GFAP. Described as above. The series is classed as cell-based, human. Here is the method:
as §1, §2, §3

A further series concerns NES. The series is described as above. The series is classed as cell-based, human. The procedure:
as §1, §2, §3

In a further series the test system is ACTB. The series is described as above. Format: cell-based, human. Here is the method:
as §1, §2, §3

In another series the test system is NHAs. Put plainly: Cell morphology, light microscopy (phase contrast). Format: cell-based, human. Particulars: evident already at 1 µM, 24 h, 100× magnification.
Series [2] can be described thus: Insertion into lipid monolayer (Langmuir trough, surface pressure). The series is classed as physicochemical. As to conditions: for insertion kinetics into the lipid monolayer (surface pressure increase): 20 µM, initial pressure ~11 mN/m; for critical pressure of insertion: extrapolation to zero pressure variation (ΔΠ = 0), 20 µM CCP. The procedure:
Lateral pressure measurements were carried out in a Langmuir trough (MicroTrough-S system; Kibron, Helsinki, Finland) at room temperature (25 °C) under constant stirring. The aqueous sub-phase was 500 µL 10 mM Hepes, 200 mM NaCl, and pH 7.5.
To create lipid monolayers, dioleylposphatidylcholine and cholesterol (70:30) were dissolved together in chloroform/methanol (2:1, v/v) and gently spread over the sub-phase. The desired initial surface pressure was obtained by changing the amounts of the lipid mixture applied to the air–water interface. After solvent evaporation (10 min), each CCP was separately injected through a hole that was connected to the sub-phase, at a final concentration in the Langmuir trough of 20 µM. The changes in surface pressure versus time were recorded until a stable signal was obtained. […] The increase in the surface pressure (∆Π) was plotted versus the initial pressure (Π0), and the critical pressures were determined using linear regression with Prism 5 software (GraphPad, Inc., La Jolla, CA, USA).

[3] abbreviates: means ± SD, p-nitrophenyl phosphate 10 mM.
The mark [4] stands for this setting: NHA, 0.1 µM CCP, 24 h, relative to non-treated control.
Where [5] appears, read: NHA, 1 µM CCP, 24 h, relative to non-treated control.
Where [6] appears, read: NHA, 10 µM CCP, 24 h, relative to non-treated control.

T1 sequence (P67774 whole entry): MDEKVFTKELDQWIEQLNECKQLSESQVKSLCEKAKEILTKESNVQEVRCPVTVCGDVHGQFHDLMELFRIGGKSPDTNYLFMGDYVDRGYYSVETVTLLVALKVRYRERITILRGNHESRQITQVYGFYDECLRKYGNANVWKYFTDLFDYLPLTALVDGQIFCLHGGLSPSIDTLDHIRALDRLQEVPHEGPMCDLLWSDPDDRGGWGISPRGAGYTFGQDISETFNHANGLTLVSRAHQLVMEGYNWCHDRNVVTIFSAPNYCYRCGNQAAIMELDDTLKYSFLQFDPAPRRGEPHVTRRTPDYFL

`CC[C@H](C)[C@@H]1NC(=O)[C@H](NC(=O)N[C@@H](CCCNC(=N)N)C(=O)O)CCCCNC(=O)[C@H](Cc2ccccc2)NC(=O)[C@H](C)N(C)C(=O)[C@H](CCc2ccc(O)cc2)NC1=O` [anabaenopeptin F] ({Arg-CO}-[dK]I[hTyr][NMeA]F; lactam 1-C) displayed an IC50 in series [1] (setting [3]) of 1 ± 0.2 µM. Also, the entries for the “Changes in gene expression of TUBA1A” value in the series with TUBA1A (setting [4]), in the series on TUBA1A (setting [5]) and in the series with TUBA1A (setting [6]) were 0.941 ± 0.186, 1.144 ± 0.291 and 0.826 ± 0.036, respectively. The “Changes in gene expression of GFAP” value with GFAP (setting [4]) was found to be 1.326 ± 0.507; with GFAP (setting [5]) it was 0.846 ± 0.211; with GFAP (setting [6]) it was 1.167 ± 0.250. The “Changes in gene expression of NES” value in the series on NES (setting [4]) amounted to 1.345 ± 0.205; in the series with NES (setting [5]) it was 1.449 ± 0.171; with NES (setting [6]), 1.381 ± 0.173. The “Changes in gene expression of ACTB” value is 0.824 ± 0.227 in the series on ACTB (setting [4]), 1.121 ± 0.167 with ACTB (setting [5]) and 0.890 ± 0.184 with ACTB (setting [6]).
As for `CC(C)[C@@H]1NC(=O)[C@H](NC(=O)N[C@@H](CCCNC(=N)N)C(=O)O)CCCCNC(=O)[C@H](Cc2ccccc2)NC(=O)[C@H](C)N(C)C(=O)[C@H](CCc2ccc(O)cc2)NC1=O` [anabaenopeptin B] ({Arg-CO}-[dK]V[hTyr][NMeA]F; lactam 1-C), the “morphological changes under light microscopy” value in the series with NHAs is listed as “formation of twisted astrocytic outgrowths”. The IC50 in series [1] (setting [3]) is 12.3 ± 6.1 µM. The “Changes in gene expression of TUBA1A” value with TUBA1A (setting [4]) was determined as 1.082 ± 0.219; with TUBA1A (setting [5]) it was 0.807 ± 0.100; in the series on TUBA1A (setting [6]) it was 0.895 ± 0.119. Moreover, the “Changes in gene expression of GFAP” value is 1.053 ± 0.124 in the series on GFAP (setting [4]), 1.434 ± 0.180 in the series on GFAP (setting [5]) and 0.918 ± 0.204 with GFAP (setting [6]). In addition, the figures for the “Changes in gene expression of NES” value in the series on NES (setting [4]), in the series on NES (setting [5]) and with NES (setting [6]) were 1.361 ± 0.291, 1.221 ± 0.338 and 1.388 ± 0.313, respectively. In addition, the “Changes in gene expression of ACTB” value is 1.175 ± 0.386 in the series on ACTB (setting [4]), 0.935 ± 0.157 with ACTB (setting [5]) and 0.934 ± 0.166 with ACTB (setting [6]). For the same molecule, the “insertion kinetics into the lipid monolayer (surface pressure increase)” value in series [2] is recorded as “interacted rapidly with the monolayer”. The “critical pressure of insertion” value in series [2] is recorded as 27.1 mN/m.
Consider `CC[C@H](C)[C@@H]1NC(=O)[C@H](Cc2ccc(OC)cc2)N(C)C(=O)[C@H]([C@@H](C)O)N2C(=O)[C@H](CC[C@H]2O)NC(=O)[C@H](CC(C)C)NC(=O)[C@@H](NC(=O)[C@H](CCC(N)=O)NC(=O)[C@H](CCc2ccc(O)cc2)NC(=O)[C@@H](O)CO)[C@@H](C)OC1=O`, for which the “morphological changes under light microscopy” value with NHAs is on record as “formation of twisted astrocytic outgrowths”. Further, the IC50 in series [1] (setting [3]) came to 18.2 ± 15.7 µM. Further, the “Changes in gene expression of TUBA1A” value was found to be 0.940 ± 0.162 with TUBA1A (setting [4]), 0.824 ± 0.128 in the series with TUBA1A (setting [5]) and 1.000 ± 0.141 in the series with TUBA1A (setting [6]). Also, the results for the “Changes in gene expression of GFAP” value in the series with GFAP (setting [4]), in the series on GFAP (setting [5]) and with GFAP (setting [6]) were 1.051 ± 0.351, 0.947 ± 0.101 and 1.119 ± 0.240, respectively. Also, the “Changes in gene expression of NES” value with NES (setting [4]) stood at 1.262 ± 0.077; in the series on NES (setting [5]) it was 1.203 ± 0.196; in the series on NES (setting [6]), 1.370 ± 0.208. Besides, the figures for the “Changes in gene expression of ACTB” value in the series on ACTB (setting [4]), with ACTB (setting [5]) and in the series with ACTB (setting [6]) were 0.949 ± 0.140, 0.988 ± 0.147 and 1.162 ± 0.251, respectively. Besides, in series [2], the “insertion kinetics into the lipid monolayer (surface pressure increase)” value is “interacted rapidly with the monolayer”. Moreover, in series [2], the “critical pressure of insertion” value is given as 34.2 mN/m.
For `C=C1C(=O)N[C@H](C)C(=O)N[C@@H](CC(C)C)C(=O)N[C@@H](C(=O)O)[C@H](C)C(=O)N[C@@H](CCCNC(=N)N)C(=O)N[C@@H](/C=C/C(C)=C/[C@H](C)[C@H](Cc2ccccc2)OC)[C@H](C)C(=O)N[C@@H](C(=O)O)CCC(=O)N1C` [MC-LR, Microcystin-LR, reference compound] (R[Adda][d(γGlu)][NMeDha][dA]L[dAsp(3S-Me)]-OH; lactam N-7), the IC50 in series [1] turned out to be 4.8e-05 ± 1e-05 µM. Also, in the series with TUBA1A, the “Changes in gene expression of TUBA1A” value was 0.957 ± 0.046 and 0.941 ± 0.025. In the series on GFAP, the “Changes in gene expression of GFAP” value was 1.395 ± 0.312 and 1.453 ± 0.279. Moreover, in the series on NES, the “Changes in gene expression of NES” value is 0.917 ± 0.067 and 1.266 ± 0.250. The “Changes in gene expression of ACTB” value in the series with ACTB was 1.866 ± 0.844 and 1.071 ± 0.437.
